From article PMC5543128 (Scientific Reports, 2017)
Entries after “also recorded” stand apart in the source; their conditions may differ. Where a SMILES comes first, the peptide text is derived from it. Bridges are numbered along the chain shown (N, C = ends). [ ]: non-standard residue; d: D form. Hyp = O=C(O)[C@@H]1C[C@@H](O)CN1

What was measured:
[1] = system: isolated mouse phrenic-hemidiaphragm nerve-muscle preparations; conditions: for IC50: pH 7.4
mice [2] = conditions: mouse, in vivo
[3] = biological target: Torpedo muscle-type nicotinic acetylcholine receptors (nAChRs) (Tetronarce californica, UniProt P02710+P02714+P02718); format: binding
hemidiaphragm muscle = system: hemidiaphragm muscle; parameters: species or system mouse
mice [4] = conditions: mouse, in vivo, ip

Chain of Torpedo muscle-type nicotinic acetylcholine receptors (nAChRs) (P02710 whole entry, looked up): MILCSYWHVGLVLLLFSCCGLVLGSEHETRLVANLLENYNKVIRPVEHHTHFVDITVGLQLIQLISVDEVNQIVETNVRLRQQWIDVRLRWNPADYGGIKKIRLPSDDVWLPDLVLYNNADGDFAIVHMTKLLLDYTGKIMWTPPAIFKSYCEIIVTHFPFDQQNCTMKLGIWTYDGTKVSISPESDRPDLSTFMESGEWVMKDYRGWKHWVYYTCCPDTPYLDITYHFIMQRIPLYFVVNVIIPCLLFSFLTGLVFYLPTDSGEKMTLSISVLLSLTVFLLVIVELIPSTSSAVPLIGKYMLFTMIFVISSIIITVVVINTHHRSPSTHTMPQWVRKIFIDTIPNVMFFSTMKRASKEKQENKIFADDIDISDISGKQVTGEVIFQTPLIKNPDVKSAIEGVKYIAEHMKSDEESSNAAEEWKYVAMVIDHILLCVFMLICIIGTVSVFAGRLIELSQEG
Chain of Torpedo muscle-type nicotinic acetylcholine receptors (nAChRs) (P02714 whole entry, looked up): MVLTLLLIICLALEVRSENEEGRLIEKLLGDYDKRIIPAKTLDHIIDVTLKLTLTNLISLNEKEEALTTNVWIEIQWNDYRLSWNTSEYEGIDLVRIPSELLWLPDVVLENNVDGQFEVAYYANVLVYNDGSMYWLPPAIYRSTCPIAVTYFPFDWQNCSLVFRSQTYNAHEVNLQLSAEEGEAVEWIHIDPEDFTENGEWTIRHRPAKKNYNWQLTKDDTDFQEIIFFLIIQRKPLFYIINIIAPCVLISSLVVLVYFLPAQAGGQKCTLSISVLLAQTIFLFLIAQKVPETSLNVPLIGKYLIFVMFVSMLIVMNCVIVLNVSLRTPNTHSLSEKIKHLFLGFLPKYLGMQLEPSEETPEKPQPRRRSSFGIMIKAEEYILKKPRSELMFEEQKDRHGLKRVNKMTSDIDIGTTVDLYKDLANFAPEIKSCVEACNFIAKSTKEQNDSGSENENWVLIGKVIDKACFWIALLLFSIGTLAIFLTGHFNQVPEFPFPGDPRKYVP
Chain of Torpedo muscle-type nicotinic acetylcholine receptors (nAChRs) (P02718 whole entry, looked up): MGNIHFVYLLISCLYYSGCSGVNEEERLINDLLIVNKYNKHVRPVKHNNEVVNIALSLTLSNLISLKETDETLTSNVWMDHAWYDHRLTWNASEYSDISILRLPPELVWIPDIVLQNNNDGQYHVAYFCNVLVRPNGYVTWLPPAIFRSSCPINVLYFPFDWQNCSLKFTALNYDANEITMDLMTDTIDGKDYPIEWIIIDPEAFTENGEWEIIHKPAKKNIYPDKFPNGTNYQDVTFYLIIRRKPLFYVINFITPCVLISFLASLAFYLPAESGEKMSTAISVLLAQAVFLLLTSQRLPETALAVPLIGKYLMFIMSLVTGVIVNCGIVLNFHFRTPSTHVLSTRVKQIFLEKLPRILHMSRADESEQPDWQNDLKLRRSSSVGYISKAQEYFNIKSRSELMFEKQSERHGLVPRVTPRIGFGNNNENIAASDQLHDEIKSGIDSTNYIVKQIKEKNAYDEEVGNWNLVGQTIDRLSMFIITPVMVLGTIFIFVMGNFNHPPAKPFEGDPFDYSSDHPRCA

Row | Compound | maximal block of contraction [1] | potency relative to αC-conotoxin PrXA [1] | IC50 [1] [nM] | mice lethality (mice [2]) [%] | time to death (mice [2]) [min] | IC50 (mice death) (mice [2]; ip) [µg/g] | inhibition of [^125I]-α-bungarotoxin binding [3] | inhibition of muscle contraction [1] | time to full block of muscle contraction [1] [min] | effect on contractility force under direct electrical stimulation (hemidiaphragm muscle) | D/T (dead/treated mice) (mice [4])
1 | CC[C@H](C)[C@H](NC(=O)[C@H](Cc1ccc(O)cc1)NC(=O)[C@H](Cc1c[nH]cn1)NC(=O)[C@@H]1CSSC[C@H](NC(=O)[C@@H]2CCCN2C(=O)[C@H](CCCNC(=N)N)NC(=O)[C@H](CC(C)C)NC(=O)[C@H](CC(=O)O)NC(=O)[C@@H]2CCCN2C(=O)[C@H](CCCCN)NC(=O)CNC(=O)CN)C(=O)N[C@@H](Cc2c[nH]cn2)C(=O)N2CCC[C@H]2C(=O)N2CCC[C@H]2C(=O)N1)C(=O)N1CCC[C@H]1C(=O)N[C@@H](CCCNC(=N)N)C(=O)N1CCC[C@H]1C(=O)N[C@@H](CCCCN)C(=O)N1CCC[C@H]1C(=O)N[C@@H](CCCNC(=N)N)C(=O)O [Waglerin 1] (H-GGKPDLRPCHPPCHYIPRPKPR-OH; disulfide 9-13) | full block of contraction | twofold less potent | 58 ± 2 |  |  |  |  |  |  |  | 
2 | CC[C@H](C)[C@H](NC(=O)[C@H](Cc1ccc(O)cc1)NC(=O)[C@H](Cc1cnc[nH]1)NC(=O)[C@@H]1CSSC[C@H](NC(=O)[C@@H]2CCCN2C(=O)[C@H](CCCNC(=N)N)NC(=O)[C@H](CC(C)C)NC(=O)[C@H](CC(=O)O)NC(=O)[C@@H]2CCCN2C(=O)[C@H](CCCCN)NC(=O)CNC(=O)CN)C(=O)N[C@@H](Cc2cnc[nH]2)C(=O)N2CCC[C@H]2C(=O)N2CCC[C@H]2C(=O)N1)C(=O)N1CCC[C@H]1C(=O)N[C@@H](CCCNC(=N)N)C(=O)N1CCC[C@H]1C(=O)N[C@@H](CCCCN)C(=O)N1CCC[C@H]1C(=O)N[C@@H](CCCNC(=N)N)C(=O)O [Waglerin 1] (H-GGKPDLRPCHPPCHYIPRPKPR-OH; disulfide 9-13) |  |  |  | 100 | ≤ 4.7 ± 0.7 | 0.7 |  |  |  |  | 
3 | CC[C@H](C)[C@H](NC(=O)CNC(=O)[C@H](Cc1ccc(O)cc1)NC(=O)[C@@H](N)[C@@H](C)O)C(=O)N[C@@H](Cc1ccc(O)cc1)C(=O)N[C@@H](CC(=O)O)C(=O)N[C@@H](C)C(=O)N[C@@H](CCCCN)C(=O)N1CCC[C@H]1C(=O)N1C[C@H](O)C[C@H]1C(=O)N[C@@H](Cc1ccccc1)C(=O)N[C@@H](CO)C(=O)N[C@H]1CSSC[C@@H](C(=O)N[C@H](C(=O)N[C@@H](CC(C)C)C(=O)N2CCC[C@H]2C(=O)N2C[C@H](O)C[C@H]2C(=O)N[C@@H](CC(N)=O)C(=O)N[C@@H](CC(C)C)C(=O)N[C@@H](CCCNC(=N)N)C(=O)N2C[C@H](O)C[C@H]2C(=O)N[C@@H](CCCCN)C(=O)N[C@@H](Cc2ccccc2)C(=O)N[C@@H](CCCCN)C(=O)N[C@@H](CCC(=O)O)C(N)=O)C(C)C)NC(=O)CNC(=O)CNC(=O)[C@H](CCCNC(=N)N)NC(=O)[C@H](CC(C)C)NC(=O)CNC(=O)[C@H](C)NC1=O [αC-conotoxin PrXA] (H-TYGIYDAKP[Hyp]FSCAGLRGGCVLP[Hyp]NLR[Hyp]KFKE-NH2; disulfide 13-20) |  |  | 23 ± 2 |  |  |  | fully inhibited | concentration- and time-dependent inhibition of muscle contraction | 15 | did not alter muscle contractility force; also recorded: Lack of toxin effect on direct muscle stimulation | 3/3
